Results as given in ChEMBL document CHEMBL1138518 (J Med Chem, 2009).

Experiments:
[1] = molecular target: Heat shock protein HSP 90-beta (Homo sapiens, UniProt P08238); assay: Binding affinity to human recombinant HSP90
SK-BR-3 = assay: Cytotoxicity against human SKBR3 cells after 72 hrs by celltiter-glo assay; format: functional, cell-based
CCRF-CEM [2] = assay: Cytotoxicity against human paclitaxel-resistant CCRF-CEM cells after 72 hrs by celltiter-96 aqueous one solution assay; format: functional, cell-based
A549 = assay: Cytotoxicity against human A549 cells after 72 hrs by celltiter-glo assay; format: functional, cell-based; conditions: A549, 72 h
MCF7 = assay: Cytotoxicity against human MCF7 cells after 72 hrs by celltiter-glo assay; format: functional, cell-based; conditions: MCF7, 72 h
CCRF-CEM [3] = assay: Cytotoxicity against human CCRF-CEM cells after 72 hrs by celltiter-96 aqueous one solution assay; format: functional, cell-based
SK-OV-3 = assay: Cytotoxicity against human SKOV3 cells after 72 hrs by celltiter-glo assay; format: functional, cell-based; conditions: SK-OV-3, 72 h

Sequence of Heat shock protein HSP 90-beta (P08238 whole entry): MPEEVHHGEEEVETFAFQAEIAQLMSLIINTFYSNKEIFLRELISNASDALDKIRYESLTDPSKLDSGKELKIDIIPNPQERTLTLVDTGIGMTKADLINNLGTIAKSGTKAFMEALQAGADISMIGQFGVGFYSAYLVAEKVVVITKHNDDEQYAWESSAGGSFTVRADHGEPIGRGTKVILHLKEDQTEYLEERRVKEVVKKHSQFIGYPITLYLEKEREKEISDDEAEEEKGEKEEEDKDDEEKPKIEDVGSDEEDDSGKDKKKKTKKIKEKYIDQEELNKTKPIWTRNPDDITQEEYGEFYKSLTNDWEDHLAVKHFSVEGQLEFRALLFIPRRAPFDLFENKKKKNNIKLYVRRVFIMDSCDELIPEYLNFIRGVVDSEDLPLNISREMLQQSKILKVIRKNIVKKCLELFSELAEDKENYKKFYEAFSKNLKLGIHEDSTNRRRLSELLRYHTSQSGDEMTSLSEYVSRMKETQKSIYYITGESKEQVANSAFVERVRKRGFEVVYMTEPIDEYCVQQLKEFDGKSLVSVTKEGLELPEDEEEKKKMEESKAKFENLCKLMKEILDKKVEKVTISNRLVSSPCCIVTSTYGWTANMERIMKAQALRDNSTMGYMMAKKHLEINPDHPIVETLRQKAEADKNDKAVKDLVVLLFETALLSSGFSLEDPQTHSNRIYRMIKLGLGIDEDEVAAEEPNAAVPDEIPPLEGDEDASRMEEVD

SMILES | Kd [1] [nM] | IC50 (SK-BR-3; Homo sapiens, SK-BR-3, 72 h) [nM] | further results
CO[C@H]1[C@@H](OC)C[C@H](C)CC2=C(N3CCC3)C(=O)C=C(NC(=O)/C(C)=C/C=C\[C@H](OC)[C@@H](OC(N)=O)/C(C)=C/[C@@H]1C)C2=O (stereo in doubt) | 4000 | 24 | IC50 (CCRF-CEM [2]): 2500 nM; IC50 (A549): 29 nM; IC50 (MCF7): 63 nM; IC50 (CCRF-CEM [3]): 420 nM; IC50 (SK-OV-3): 110 nM
COC1=C2C[C@@H](C)C[C@H](OC)[C@H](O)[C@@H](C)/C=C(\C)[C@H](OC(N)=O)[C@@H](OC)/C=C\C=C(/C)C(=O)NC(=CC1=O)C2=O [GELDANAMYCIN] |  |  | IC50 (SK-BR-3; sk-br-3): 41 nM
CO[C@H]1/C=C\C=C(/C)C(=O)NC2=CC(=O)C(NCCF)=C(C[C@@H](C)C[C@H](OC)[C@H](OC(=O)CN)[C@@H](C)/C=C(\C)[C@@H]1OC(N)=O)C2=O (stereo in doubt) | > 25000 | 110 | 
CO[C@H]1[C@@H](OC)C[C@H](C)CC2=C(NCCF)C(=O)C=C(NC(=O)/C(C)=C/C=C\[C@H](OC)[C@@H](OC(N)=O)/C(C)=C/[C@@H]1C)C2=O (stereo in doubt) | 2300 | 130 | IC50 (CCRF-CEM [2]): 2700 nM; IC50 (A549): 67 nM; IC50 (MCF7): 58 nM; IC50 (CCRF-CEM [3]): 960 nM; IC50 (SK-OV-3): 460 nM
CO[C@H]1/C=C\C=C(/C)C(=O)NC2=CC(=O)C(NCCN3CCCC3)=C(C[C@@H](C)C[C@H](OC)[C@H](O)[C@@H](C)/C=C(\C)[C@@H]1OC(N)=O)C2=O (stereo in doubt) | 400 | 70 | 
C=CCNC1=C2C[C@@H](C)C[C@H](OC)[C@H](O)[C@@H](C)/C=C(\C)[C@H](OC(N)=O)[C@@H](OC)/C=C\C=C(/C)C(=O)NC(=CC1=O)C2=O [TANESPIMYCIN] |  | 33 | 
CO[C@H]1[C@@H](OC)C[C@H](C)CC2=C(NCCN3CCCC3)C(=O)C=C(NC(=O)/C(C)=C/C=C\[C@H](OC)[C@@H](OC(N)=O)/C(C)=C/[C@@H]1C)C2=O (stereo in doubt) | 1000 | 160 | IC50 (CCRF-CEM [2]): 520 nM; IC50 (A549): 62 nM; IC50 (MCF7): 76 nM; IC50 (CCRF-CEM [3]): 160 nM; IC50 (SK-OV-3): 69 nM
COC1=C2C[C@@H](C)C[C@H](OC)[C@H](OC)[C@@H](C)/C=C(\C)[C@H](OC(N)=O)[C@@H](OC)/C=C\C=C(/C)C(=O)NC(=CC1=O)C2=O | 490 | 9.1 | 
CO[C@H]1/C=C\C=C(/C)C(=O)NC2=CC(=O)C(NCCF)=C(C[C@@H](C)C[C@H](OC)[C@H](O)[C@@H](C)/C=C(\C)[C@@H]1OC(N)=O)C2=O (stereo in doubt) | 800 | 17 | 
CO[C@H]1/C=C\C=C(/C)C(=O)NC2=CC(=O)C(NCCc3c[nH]cn3)=C(C[C@@H](C)C[C@H](OC)[C@H](O)[C@@H](C)/C=C(\C)[C@@H]1OC(N)=O)C2=O (stereo in doubt) | 800 | 98 | 
CO[C@H]1[C@@H](OC)C[C@H](C)CC2=C(NCCN3CCC3)C(=O)C=C(NC(=O)/C(C)=C/C=C\[C@H](OC)[C@@H](OC(N)=O)/C(C)=C/[C@@H]1C)C2=O (stereo in doubt) | 1000 | 130 | IC50 (CCRF-CEM [2]): 510 nM; IC50 (A549): 26 nM; IC50 (MCF7): 51 nM; IC50 (CCRF-CEM [3]): 85 nM; IC50 (SK-OV-3): 65 nM
CO[C@H]1/C=C\C=C(/C)C(=O)NC2=CC(=O)C(NCCN(C)C)=C(C[C@@H](C)C[C@H](OC)[C@H](O)[C@@H](C)/C=C(\C)[C@@H]1OC(N)=O)C2=O (stereo in doubt) [ALVESPIMYCIN] |  | 24 | IC50 (CCRF-CEM [2]): 2500 nM; IC50 (A549): 68 nM; IC50 (MCF7): 230 nM; IC50 (CCRF-CEM [3]): 540 nM; IC50 (SK-OV-3): 220 nM
CO[C@H]1[C@@H](OC)C[C@H](C)CC2=C(N)C(=O)C=C(NC(=O)/C(C)=C/C=C\[C@H](OC)[C@@H](OC(N)=O)/C(C)=C/[C@@H]1C)C2=O | 320 | 84 | IC50 (CCRF-CEM [2]): 850 nM; IC50 (A549): 37 nM; IC50 (MCF7): 350 nM; IC50 (CCRF-CEM [3]): 250 nM; IC50 (SK-OV-3): 200 nM
CO[C@H]1/C=C\C=C(/C)C(=O)NC2=CC(=O)C(N3CCC3)=C(C[C@@H](C)C[C@H](OC)[C@H](O)[C@@H](C)/C=C(\C)[C@@H]1OC(N)=O)C2=O (stereo in doubt) | 1400 | 24 | 
CO[C@H]1/C=C\C=C(/C)C(=O)NC2=CC(=O)C(NCCN(C)C)=C(C[C@@H](C)C[C@H](OC)[C@H](OC(=O)NN)[C@@H](C)/C=C(\C)[C@@H]1OC(N)=O)C2=O |  | > 1000 | IC50 [1]: 5 nM
CO[C@H]1/C=C\C=C(/C)C(=O)NC2=CC(=O)C(N)=C(C[C@@H](C)C[C@H](OC)[C@H](O)[C@@H](C)/C=C(\C)[C@@H]1OC(N)=O)C2=O (stereo in doubt) | 100 | 33 | 
C=CCO[C@H]1[C@@H](OC)C[C@H](C)CC2=C(N3CCC3)C(=O)C=C(NC(=O)/C(C)=C/C=C\[C@H](OC)[C@@H](OC(N)=O)/C(C)=C/[C@@H]1C)C2=O | 2900 | 390 | 
CO[C@H]1C[C@H](C)CC2=C(NCCF)C(=O)C=C(NC(=O)/C(C)=C/C=C\[C@H](OC)[C@@H](OC(N)=O)/C(C)=C/[C@H](C)/C1=N\O)C2=O | > 25000 | > 1000 | 
CO[C@H]1/C=C\C=C(/C)C(=O)NC2=CC(=O)C(NCCN3CCC3)=C(C[C@@H](C)C[C@H](OC)[C@H](O)[C@@H](C)/C=C(\C)[C@@H]1OC(N)=O)C2=O (stereo in doubt) | 400 | 26 | 

Second part, led by results:

Kd [1] [nM] | SMILES | IC50 (SK-BR-3; Homo sapiens, SK-BR-3, 72 h) [nM] | further results
> 10000 | CO[C@H]1C[C@H](C)CC2=C(NCCN(C)C)C(=O)C=C(NC(=O)/C(C)=C/C=C\[C@H](OC)[C@@H](OC(N)=O)/C(C)=C/[C@H](C)/C1=N\O)C2=O (stereo in doubt) | 95 | 
1800 | CO[C@H]1C[C@H](C)CC2=C(NCCN(C)C)C(=O)C=C(NC(=O)/C(C)=C/C=C\[C@H](OC)[C@@H](OC(N)=O)/C(C)=C/[C@H](C)C1=O)C2=O (stereo in doubt) | 100 | 
> 100000 | CO[C@H]1C[C@H](C)CC2=C(NCCN(C)C)C(=O)C=C(NC(=O)/C(C)=C/C=C\[C@H](OC)[C@@H](OC(N)=O)/C(C)=C/[C@H](C)/C1=N\OCCN(C)C)C2=O (stereo in doubt) | 2500 | 
> 100000 | C=CCO/N=C1/[C@@H](OC)C[C@H](C)CC2=C(NCCN(C)C)C(=O)C=C(NC(=O)/C(C)=C/C=C\[C@H](OC)[C@@H](OC(N)=O)/C(C)=C/[C@@H]1C)C2=O (stereo in doubt) | 400 | 
3300 | C=CCNC1=C2C[C@@H](C)C[C@H](OC)C(=O)[C@@H](C)/C=C(\C)[C@H](OC(N)=O)[C@@H](OC)/C=C\C=C(/C)C(=O)NC(=CC1=O)C2=O (stereo in doubt) | 450 | 
6400 | CO[C@H]1C[C@H](C)CC2=C(N3CCC3)C(=O)C=C(NC(=O)/C(C)=C/C=C\[C@H](OC)[C@@H](OC(N)=O)/C(C)=C/[C@H](C)C1=O)C2=O (stereo in doubt) | 260 | 
> 100000 | CO/N=C1/[C@@H](OC)C[C@H](C)CC2=C(NCCN(C)C)C(=O)C=C(NC(=O)/C(C)=C/C=C\[C@H](OC)[C@@H](OC(N)=O)/C(C)=C/[C@@H]1C)C2=O (stereo in doubt) | 550 | 
800 | CO[C@H]1[C@@H](OC)C[C@H](C)CC2=C(NCCN(C)C)C(=O)C=C(NC(=O)/C(C)=C/C=C\[C@H](OC)[C@@H](OC(N)=O)/C(C)=C/[C@@H]1C)C2=O | 11 | IC50 (CCRF-CEM [2]): 390 nM; IC50 (A549): 23 nM; IC50 (MCF7): 50 nM; IC50 (CCRF-CEM [3]): 58 nM; IC50 (SK-OV-3): 43 nM
> 25000 | CO[C@H]1C[C@H](C)CC2=C(NCCN(C)C)C(=O)C=C(NC(=O)/C(C)=C/C=C\[C@H](OC)[C@@H](OC(N)=O)/C(C)=C/[C@H](C)/C1=N\OCC(=O)O)C2=O (stereo in doubt) | 2700 | 
> 25000 | CO[C@H]1C[C@H](C)CC2=C(N3CCC3)C(=O)C=C(NC(=O)/C(C)=C/C=C\[C@H](OC)[C@@H](OC(N)=O)/C(C)=C/[C@H](C)/C1=N\O)C2=O | 310 | 
> 10000 | C=CCNC1=C2C[C@@H](C)C[C@H](OC)/C(=N/O)[C@@H](C)/C=C(\C)[C@H](OC(N)=O)[C@@H](OC)/C=C\C=C(/C)C(=O)NC(=CC1=O)C2=O | 350 | 
2600 | CO[C@H]1C[C@H](C)CC2=C(NCCF)C(=O)C=C(NC(=O)/C(C)=C/C=C\[C@H](OC)[C@@H](OC(N)=O)/C(C)=C/[C@H](C)C1=O)C2=O (stereo in doubt) | 170 | 
> 100000 | CO[C@H]1C[C@H](C)CC2=C(NCCN(C)C)C(=O)C=C(NC(=O)/C(C)=C/C=C\[C@H](OC)[C@@H](OC(N)=O)/C(C)=C/[C@H](C)/C1=N\OCc1ccccc1)C2=O (stereo in doubt) | 480 | 
